Experimental data taken from US9574189B2, “Enzymatic encoding methods for efficient synthesis of large libraries” (Nuevolution A/S, priority 2005, dated 2017).

Biological target: T1, human alpha-thrombin (Homo sapiens, UniProt P00734)
T1 construct: purchased Heamatologic Technologies Inc
Test: Ki of released display molecule against thrombin, chromogenic substrate S-2238
Format: biochemical
Conditions: display molecule released by UV cleavage; 5 min incubation at 22° C.; nonlinear regression of Vmax; 95% confidence interval 0-13 nM
Protocol: To determine the Ki of the released display molecule against the protease thrombin, human alpha-thrombin (Heamatologic Technologies Inc.) was diluted in buffer (0.015 units/μl) and the released display molecule was added. Following 5 minutes of incubation at 22° C. a chromogenic substrate (Chromogenix catalogue number S-2238) was added and the maximum turnover (Vmax) of the enzyme was determined in a by measuring the change in absorbance at 405 nm using a Versamax reader (Molecular Devices). This was repeated for different concentrations of the released display molecule and different concentrations of substrate. The Vmax values obtained were then fitted using nonlinear regression implemented in the Prism software (Graphpad) to obtain the Ki of the display molecule.

Compound: NC(=O)COc1ccc(Cl)cc1CNC(=O)[C@H]1CCCN1C(=O)[C@@H](N)C1CCCCC1
- Ki: 5.2 nM
